The text below walks through data of US11834440B2, “Beta-lactam derivatives for the treatment of diseases” (Insilico Medicine IP Limited, priority 2021, dated 2023).

In this assay the target is QPCTL (Homo sapiens (Human), UniProt Q9NXS2). Kind of assay: QPCTL inhibition, SensoLyte Green Glutaminyl Cyclase Activity Assay. The class given is biochemical. Conditions: 0.8 nM 2x enzyme solution, 45 min at 37° C., 50 mM Tris pH 8.0, 1% DMSO. Here is the method:
Preparation of working solution: 2×Glutaminyl Cyclase substrate was diluted in assay buffer to […]. 2×enzyme solution and QPCTL was diluted in assay buffer to 0.8 nM. Glutaminyl Cyclase Developer was diluted in assay buffer to 1×(containing 10 mM 1-Benzyl-Imidazole). Serial dilution of test compounds was performed in DMSO. The final DMSO concentration in 100 μl reaction was 1%. The assay buffer was 50 mM Tris, pH 8.0, 0.01% BSA.
Procedure: 50 μL of 2×Glutaminyl Cyclase substrate solution was added into the assay plate followed by 50 μL of 2×enzyme solution. The plate was centrifuged for 1 min at 1000 rmp. Next the plate was incubated for 45 minutes at 37° C. This was followed by the additional of 50 μL of the prepared Glutaminyl Cyclase developer and incubated for additional 30 min at 37° C. Results were read on SpectraMax Paradigm detecting with emission at Ex/Em=490 nm/520 nm.
A Z′ value was calculated for each assay plate. The Z′ value must be >0.5 or the plate was disqualified. […] Results were calculated using GraphPad Prism 7 software is used for IC50 determination.

Chain of QPCTL (Q9NXS2 whole entry, species assumed): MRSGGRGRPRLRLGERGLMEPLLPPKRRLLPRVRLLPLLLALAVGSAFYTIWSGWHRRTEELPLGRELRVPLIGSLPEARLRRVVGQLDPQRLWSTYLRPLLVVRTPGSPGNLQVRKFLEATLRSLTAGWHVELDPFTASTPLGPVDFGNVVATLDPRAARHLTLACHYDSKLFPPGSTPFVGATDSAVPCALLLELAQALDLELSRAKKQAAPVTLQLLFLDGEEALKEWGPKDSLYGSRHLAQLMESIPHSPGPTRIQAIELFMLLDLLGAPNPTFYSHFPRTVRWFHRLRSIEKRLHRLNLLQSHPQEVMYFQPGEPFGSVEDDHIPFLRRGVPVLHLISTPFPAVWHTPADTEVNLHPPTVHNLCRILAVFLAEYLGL

On to `O=C1[C@H](C2CC2)[C@H](c2c(F)cc(-c3cn(C(F)(F)F)cn3)cc2F)N1c1ccc2[nH]cnc2c1` (single isomer, unassigned) [Compound 49B], for which the IC50 (in general, the midpoint of a concentration-inhibition curve) was in the range of 2 to 25 nM. With `O=C1[C@@H](C2CC2)[C@@H](c2c(F)cc(-c3cn(C(F)(F)F)nn3)cc2F)N1c1ccc2[nH]cnc2c1` (single isomer, unassigned) [Compound 50A] the figure was 25 to 1000 nM; with `O=C1[C@H](C2CC2)[C@H](c2c(F)cc(-c3cn(C(F)(F)F)nn3)cc2F)N1c1ccc2[nH]cnc2c1` (single isomer, unassigned) [Compound 50B], < 2 nM. With `CC[C@@H]1C(=O)N(c2ccc3[nH]cnc3c2)[C@@H]1c1c(F)cc(-c2cnn(C(F)(F)F)c2)cc1F` (single isomer, unassigned) [Compound 51A] the figure was 25 to 1000 nM. For `CC[C@H]1C(=O)N(c2ccc3[nH]cnc3c2)[C@H]1c1c(F)cc(-c2cnn(C(F)(F)F)c2)cc1F` (single isomer, unassigned) [Compound 51B], the IC50 was < 2 nM. On to `O=C1[C@H](C2CC2)[C@H](c2c(F)cc(-c3ccc(C(F)(F)F)nn3)cc2F)N1c1ccc2[nH]cnc2c1` (single isomer, unassigned) [Compound 52B], for which the IC50 is < 2 nM. `O=C1[C@H](C2CC2)[C@H](c2c(F)cc(-c3cnccn3)cc2F)N1c1ccc2[nH]cnc2c1` (single isomer, unassigned) [Compound 53B]: the IC50 is < 2 nM. As for `O=C1[C@H](CC(F)(F)F)[C@H](c2c(F)cc(-c3cnn(C(F)(F)F)c3)cc2F)N1c1ccc2[nH]cnc2c1` (single isomer, unassigned) [Compound 54B], the figure is < 2 nM; as for `O=C1[C@@H](C2CC2)[C@@H](c2ccc(-c3cnn(C(F)(F)F)c3)cc2)N1c1ccc2[nH]cnc2c1` (single isomer, unassigned) [Compound 55A], 25 to 1000 nM.

With `O=C1[C@H](C2CC2)[C@H](c2ccc(-c3cnn(C(F)(F)F)c3)cc2)N1c1ccc2[nH]cnc2c1` (single isomer, unassigned) [Compound 55B], the IC50 is < 2 nM. With `Cc1cc(-c2cnn(C(F)(F)F)c2)ccc1[C@@H]1[C@H](C2CC2)C(=O)N1c1ccc2[nH]cnc2c1` (single isomer, unassigned) [Compound 56A] the figure was 25 to 1000 nM; with `Cc1cc(-c2cnn(C(F)(F)F)c2)ccc1[C@H]1[C@@H](C2CC2)C(=O)N1c1ccc2[nH]cnc2c1` (single isomer, unassigned) [Compound 56B], < 2 nM. As for `Cc1cc([C@@H]2[C@H](C3CC3)C(=O)N2c2ccc3[nH]cnc3c2)ccc1-c1cnn(C(F)(F)F)c1` (single isomer, unassigned) [Compound 57A], the figure is 25 to 1000 nM; as for `Cc1cc([C@H]2[C@@H](C3CC3)C(=O)N2c2ccc3[nH]cnc3c2)ccc1-c1cnn(C(F)(F)F)c1` (single isomer, unassigned) [Compound 57B], < 2 nM. As for `O=C1[C@H](C2CC2)[C@H](c2c(F)cc(-n3cc(C(F)(F)F)cn3)cc2F)N1c1ccc2[nH]cnc2c1` (single isomer, unassigned) [Compound 58B], the IC50 is < 2 nM. With `O=C1[C@H](C2CC2)[C@H](c2c(F)cc(-n3cc(C(F)(F)F)nn3)cc2F)N1c1ccc2[nH]cnc2c1` (single isomer, unassigned) [Compound 59B] the figure was < 2 nM. As for `O=C1[C@H](C2CC2)[C@H](c2c(F)cc(-n3ncc(C(F)(F)F)n3)cc2F)N1c1ccc2[nH]cnc2c1` (single isomer, unassigned) [Compound 60B], the figure is < 2 nM; as for `O=C1[C@H](C2CC2)[C@H](c2c(F)cc(-n3cnc(C(F)(F)F)c3)cc2F)N1c1ccc2[nH]cnc2c1` (single isomer, unassigned) [Compound 61B], < 2 nM. As for `Cc1cc(-c2cc(F)c([C@H]3[C@@H](C4CC4)C(=O)N3c3ccc4[nH]cnc4c3)c(F)c2)on1` (single isomer, unassigned) [Compound 62B], the figure is < 2 nM. Consider `Cc1oncc1-c1cc(F)c([C@H]2[C@@H](C3CC3)C(=O)N2c2ccc3[nH]cnc3c2)c(F)c1` (single isomer, unassigned) [Compound 63B], for which the IC50 is < 2 nM. `Cc1noc(C)c1-c1cc(F)c([C@H]2[C@@H](C3CC3)C(=O)N2c2ccc3[nH]cnc3c2)c(F)c1` (single isomer, unassigned) [Compound 64B] gave an IC50 of 2 to 25 nM.

Take `Cc1ccc(-c2cc(F)c([C@H]3[C@@H](C4CC4)C(=O)N3c3ccc4[nH]cnc4c3)c(F)c2)nn1` (single isomer, unassigned) [Compound 65B]: the IC50 is < 2 nM.

On to `Cc1cc(-c2cnn(C(F)(F)F)c2)ncc1[C@@H]1[C@H](C2CC2)C(=O)N1c1ccc2[nH]cnc2c1` (single isomer, unassigned) [Compound 66A], for which the IC50 was in the range of 25 to 1000 nM. For `Cc1cc(-c2cnn(C(F)(F)F)c2)ncc1[C@H]1[C@@H](C2CC2)C(=O)N1c1ccc2[nH]cnc2c1` (single isomer, unassigned) [Compound 66B], the IC50 is < 2 nM.

Turning to `Cc1cc(-c2ccc(C(F)(F)F)nn2)ccc1[C@@H]1[C@H](C2CC2)C(=O)N1c1ccc2[nH]cnc2c1` (single isomer, unassigned) [Compound 67A], the IC50 was 25 to 1000 nM. For the compound `Cc1cc(-c2ccc(C(F)(F)F)nn2)ccc1[C@H]1[C@@H](C2CC2)C(=O)N1c1ccc2[nH]cnc2c1` (single isomer, unassigned) [Compound 67B], the IC50 is < 2 nM.

The compound `Cc1nc(-c2cnn(C(F)(F)F)c2)ccc1[C@@H]1[C@H](C2CC2)C(=O)N1c1ccc2[nH]cnc2c1` (single isomer, unassigned) [Compound 68A] showed an IC50 of 25 to 1000 nM. As for `Cc1nc(-c2cnn(C(F)(F)F)c2)ccc1[C@H]1[C@@H](C2CC2)C(=O)N1c1ccc2[nH]cnc2c1` (single isomer, unassigned) [Compound 68B], the figure is < 2 nM; as for `O=C1[C@@H](C2CC2)[C@@H](c2c(F)cc(C3CC3)cc2F)N1c1ccc2[nH]cnc2c1` (single isomer, unassigned) [Compound 69A], 25 to 1000 nM. Take `O=C1[C@H](C2CC2)[C@H](c2c(F)cc(C3CC3)cc2F)N1c1ccc2[nH]cnc2c1` (single isomer, unassigned) [Compound 69B]: the IC50 is < 2 nM. With `Cc1nc(-c2ccc(C(F)(F)F)nn2)ccc1[C@@H]1[C@H](C2CC2)C(=O)N1c1ccc2[nH]cnc2c1` (single isomer, unassigned) [Compound 70A] the figure was 25 to 1000 nM; with `Cc1nc(-c2ccc(C(F)(F)F)nn2)ccc1[C@H]1[C@@H](C2CC2)C(=O)N1c1ccc2[nH]cnc2c1` (single isomer, unassigned) [Compound 70B], < 2 nM. With `Cc1ccc(-c2ccc([C@@H]3[C@H](C4CC4)C(=O)N3c3ccc4[nH]cnc4c3)c(C)n2)nn1` (single isomer, unassigned) [Compound 71A] the figure was 25 to 1000 nM; with `Cc1ccc(-c2ccc([C@H]3[C@@H](C4CC4)C(=O)N3c3ccc4[nH]cnc4c3)c(C)n2)nn1` (single isomer, unassigned) [Compound 71B], < 2 nM; with `Cc1nc(-n2cnc(C(F)(F)F)c2)ccc1[C@@H]1[C@H](C2CC2)C(=O)N1c1ccc2[nH]cnc2c1` (single isomer, unassigned) [Compound 72A], > 1000 nM. As for `Cc1nc(-n2cnc(C(F)(F)F)c2)ccc1[C@H]1[C@@H](C2CC2)C(=O)N1c1ccc2[nH]cnc2c1` (single isomer, unassigned) [Compound 72B], the figure is < 2 nM. On to `Cc1cc(-n2cnc(C(F)(F)F)c2)ncc1[C@@H]1[C@H](C2CC2)C(=O)N1c1ccc2[nH]cnc2c1` (single isomer, unassigned) [Compound 73A], for which the IC50 fell in the range of 25 to 1000 nM. As for `Cc1cc(-n2cnc(C(F)(F)F)c2)ncc1[C@H]1[C@@H](C2CC2)C(=O)N1c1ccc2[nH]cnc2c1` (single isomer, unassigned) [Compound 73B], the figure is < 2 nM; as for `Cc1cc(-n2cnc(C(F)(F)F)c2)ccc1[C@@H]1[C@H](C2CC2)C(=O)N1c1ccc2[nH]cnc2c1` (single isomer, unassigned) [Compound 74A], 25 to 1000 nM; as for `Cc1cc(-n2cnc(C(F)(F)F)c2)ccc1[C@H]1[C@@H](C2CC2)C(=O)N1c1ccc2[nH]cnc2c1` (single isomer, unassigned) [Compound 74B], < 2 nM. `O=C1[C@@H](C2CC2)[C@@H](c2ccc(-c3cnn(C(F)(F)F)c3)cc2Cl)N1c1ccc2[nH]cnc2c1` (single isomer, unassigned) [Compound 75A] registered an IC50 of 25 to 1000 nM. On to `O=C1[C@H](C2CC2)[C@H](c2ccc(-c3cnn(C(F)(F)F)c3)cc2Cl)N1c1ccc2[nH]cnc2c1` (single isomer, unassigned) [Compound 75B], for which the IC50 was < 2 nM.

Regarding `O=C1[C@@H](C2CC2)[C@@H](c2ccc(-c3cnn(C(F)(F)F)c3)cc2C(F)(F)F)N1c1ccc2[nH]cnc2c1` (single isomer, unassigned) [Compound 76A], the IC50 was < 2 nM. As for `O=C1[C@H](C2CC2)[C@H](c2ccc(-c3cnn(C(F)(F)F)c3)cc2C(F)(F)F)N1c1ccc2[nH]cnc2c1` (single isomer, unassigned) [Compound 76B], the figure is > 1000 nM; as for `O=C1[C@@H](C2CC2)[C@@H](c2c(F)cc(-c3ccc(C(F)(F)F)nn3)cc2F)N1c1ccc2[nH]cnc2c1` [Compound 52A], 25 to 1000 nM.
